Experimental data from PubChem BioAssay AID651934 (Southern Research Specialized Biocontainment Screening …, 2012).
Active and inactive are the calls of the source. How the calls were made is not given here.

Tests used:
[1] = system: Chikungunya virus infected cells, CPE inhibition; experiment: Chikungunya virus CPE inhibitors, dose response, cell-based, secondary assay, set 3 (AID 651934)
[2] = as above; details: Chikungunya virus infected cells, CPE inhibition

| Structure (SMILES) | inhibition ([2]; at 50 µM (top of the series)) | inhibition ([2]; at 25 µM (top of the series)) | further results |
| --- | --- | --- | --- |
| O=c1nc(Nc2ccc(OCc3ccccc3)cc2)sc2ncccc12 |  |  | IC50 [1]: 1060 nM |
| CN1CCN(C)C(=Nc2ccc(C#N)cc2C(=O)Nc2cccc(F)c2)C1 | 3.5% (inactive) |  |  |
| CN1CCN(C)C(=Nc2ccc(F)cc2C(=O)Nc2ccccc2)C1 | 2.2% (inactive) |  |  |
| CCN1CCN(Cc2nc3ccc([N+](=O)[O-])cc3c(=O)n2-c2ccccc2F)CC1 | -3.4% (inactive) |  |  |
| O=C1CN(Cc2nc3ccc([N+](=O)[O-])cc3c(=O)n2-c2ccccc2F)CCN1 | 1.2% (inactive) |  |  |
| CNCCCN(C)Cc1nc2ccc([N+](=O)[O-])cc2c(=O)n1-c1ccccc1 | 0.8% (inactive) |  |  |
| COc1ccc(Nc2nc(=O)c3cccnc3s2)cc1 | -5.2% (inactive) |  |  |
| CNCCN(C)Cc1nc2ccc(C#N)cc2c(=O)n1-c1ccccc1F | 6.3% (inactive) |  |  |
| CN1CCN(C)C(=Nc2ccc([N+](=O)[O-])cc2C(=O)Nc2ccccc2)C1 |  | -1.6% (inactive) |  |
| CCN1CCN(Cc2nc3ccc([N+](=O)[O-])cc3c(=O)n2-c2ccccc2)CC1 |  | 1.8% (inactive) |  |
| Cc1cccc(C)c1Nc1nc(=O)c2cccnc2s1 |  | -0.7% (inactive) |  |
| CCN(CC)c1nc(=O)c2cccnc2s1 | -5.8% (inactive) |  |  |
| COc1ccc(NC(=O)c2cc([N+](=O)[O-])ccc2N=C2CN(C)CCN2C)cc1 |  |  | inhibition ([2]; at 0.625 µM (top of the series)): 0.6% (inactive) |
| CCN1CCN(CC2Nc3ccc([N+](=O)[O-])cc3C(=O)N2c2ccccc2F)CC1 (centres undefined) |  | -0.9% (inactive) |  |
| O=c1nc(N2CCN(Cc3ccccc3)CC2)sc2ncccc12 |  | 1.8% (inactive) |  |
| O=c1nc(Nc2ccc(CCc3ccccc3)cc2)sc2ncccc12 | 44% (inactive) |  |  |
| CCN1CCN(Cc2nc3ccc(-c4nn[nH]n4)cc3c(=O)n2-c2ccccc2)CC1 | 0.6% (inactive) |  |  |
| O=c1nc(Nc2ccccc2OCc2ccccc2)sc2ncccc12 |  | -1% (inactive) |  |
| O=c1nc(Nc2ccc(OCc3ccccc3)cc2)sc2ncc([N+](=O)[O-])cc12 |  | -1% (inactive) |  |
| CCN1CCN(Cc2nc3ccc(C#N)cc3c(=O)n2-c2ccccc2)CC1 |  | -0.5% (inactive) |  |
| CN1CCN(C)C(=Nc2cc(Cl)c(C#N)cc2C(=O)Nc2ccccc2)C1 | 2.9% (inactive) |  |  |
| CCN1CCN(Cc2nc3ccc(S(=O)(=O)O)cc3c(=O)n2-c2ccccc2)CC1 |  | -0.2% (inactive) |  |
| CCN1CCN(C)CC1=Nc1ccc([N+](=O)[O-])cc1C(=O)Nc1ccccc1 | 1.7% (inactive) |  |  |
| CCN1CCN(Cc2nc3ccc([N+](=O)[O-])cc3c(=O)n2Cc2ccccc2)CC1 | 5.3% (inactive) |  |  |
| O=c1nc(Nc2ccc(OCc3ccccc3)cc2)sc2ncc(F)cc12 |  |  | IC50 [1]: 3650 nM |
| O=c1nc(NC2CCNCC2)sc2ncccc12 |  | -0.4% (inactive) |  |
| O=c1c2cc([N+](=O)[O-])ccc2nc(CN2CCCNCC2)n1-c1ccccc1 | 4.1% (inactive) |  |  |
| O=c1nc(Nc2ccc(F)cc2)sc2ncccc12 |  | 0.9% (inactive) |  |
| CCN1CCN(c2nc3ccc([N+](=O)[O-])cc3c(=O)n2-c2ccccc2)CC1 |  | -1.4% (inactive) |  |
